Earlier results as cited in patent publication US10983136B2 (DiaSorin S.p.A., priority 2013, dated 2021).

Assays:
[1] = molecular target: T1, vitamin D binding protein (DBP) (Homo sapiens, UniProt P02774); details: association constant
T1 sequence (P02774 17-474): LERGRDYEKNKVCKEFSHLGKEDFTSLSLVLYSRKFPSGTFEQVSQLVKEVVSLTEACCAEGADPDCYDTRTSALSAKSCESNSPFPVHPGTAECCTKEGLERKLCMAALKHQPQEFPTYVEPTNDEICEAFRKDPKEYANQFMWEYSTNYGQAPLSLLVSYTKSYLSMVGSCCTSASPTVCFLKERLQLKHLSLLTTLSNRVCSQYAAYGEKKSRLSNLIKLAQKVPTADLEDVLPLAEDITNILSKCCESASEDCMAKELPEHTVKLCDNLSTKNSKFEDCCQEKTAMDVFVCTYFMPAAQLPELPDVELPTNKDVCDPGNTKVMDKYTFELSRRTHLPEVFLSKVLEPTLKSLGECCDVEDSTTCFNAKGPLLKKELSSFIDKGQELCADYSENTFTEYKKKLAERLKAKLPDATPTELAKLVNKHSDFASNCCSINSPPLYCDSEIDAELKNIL

[2] = molecular target: T1, vitamin D binding protein (DBP); details: same pH value (above 6, preferably above 7)
[3] = in circulation, under normal circumstances

| Compound | Ka (affinity of DBP) [1] [M⁻¹] | greater affinity of DBP for 25(OH)D over 1,25(OH)2D [2] | free form [3] |
| --- | --- | --- | --- |
| C=C1CC[C@H](O)C/C1=C/C=C1\CCC[C@]2(C)[C@@H]([C@H](C)CCCC(C)(C)O)CC[C@@H]12 [25(OH)D, 25-hydroxyvitamin D] | 5e+08 | about 1000 fold | approximately 0.03% |
| vitamin D | 4e+07 | – | – |
| C=C1/C(=C\C=C2/CCC[C@]3(C)[C@@H]([C@H](C)CCCC(C)(C)O)CC[C@@H]23)C[C@@H](O)C[C@@H]1O [1,25(OH)2D, 1,25-dihydroxyvitamin D] | – | – | approximately 0.4% |
